These results are taken from US9932381B2, “Exendin-4 derivatives as selective glucagon receptor agonists” (priority 2014, dated 2018).

Non-standard residues stand in square brackets, D forms with d. Residues, ends and D or L forms follow the SMILES beside them. Ala(4-thiazolyl) = N[C@@H](Cc1cscn1)C(=O)O; Chg = N[C@H](C(=O)O)C1CCCCC1; Phg = N[C@H](C(=O)O)c1ccccc1; Tle = CC(C)(C)[C@H](N)C(=O)O; Nle = CCCC[C@H](N)C(=O)O Where only a bound is given, the exact number is not on record here.

The nature of data set [1]: Solubility testing of exendin-4 derivatives (HPLC-UV of supernatant). The data set is classed as physicochemical. Particulars: pH 7.4. The procedure: Prior to the testing of solubility and stability of a peptide batch, its content was determined. Therefore, two parameters were investigated, its purity (HPLC-UV) and the amount of salt load of the batch (ion chromatography).
HPLC-UV was performed after 2 h of gentle agitation from the supernatant, which was obtained by 20 min of centrifugation at 4000 rpm.

Data set [2] addresses T1, human GLP-1 receptor (hGLP-1 R) (Homo sapiens, UniProt P43220).
T1 construct: expressed in transfected cells; host or cells: HEK-293
The data set is described as follows: cAMP response (HTRF) of HEK-293 cells stably expressing human GLP-1 receptor. The format is cell-based. To be noted: Table 4. The protocol:
(§1) cAMP content of cells was determined using a kit from Cisbio Corp. (cat. no. 62AM4PEC) based on HTRF (Homogenous Time Resolved Fluorescence). For preparation, cells were split into T175 culture flasks and grown overnight to near confluency in medium (DMEM/10% FBS). Medium was then removed and cells washed with PBS lacking calcium and magnesium, followed by proteinase treatment with accutase (Sigma-Aldrich cat. no. A6964). Detached cells were washed and resuspended in assay buffer (1×HBSS; 20 mM HEPES, 0.1% BSA, 2 mM IBMX) and cellular density determined. They were then diluted to 400000 cells/ml and 25 μl-aliquots dispensed into the wells of 96-well plates. For measurement, 25 μl of test compound in assay buffer was added to the wells, followed by incubation for 30 minutes at room temperature. After addition of HTRF reagents diluted in lysis buffer (kit components), the plates were incubated for 1 hr, followed by measurement of the fluorescence ratio at 665/620 nm. In vitro potency of agonists was quantified by determining the concentrations that caused 50% activation of maximal response (EC50).

Data set [3] has as its target T2, human glucagon receptor (hGLUC R) (Homo sapiens, UniProt P47871).
T2 construct: expressed in transfected cells; host or cells: HEK-293
The experiment in a line: cAMP response (HTRF) of HEK-293 cells stably expressing human glucagon receptor. The format is cell-based. Particulars: Table 4; read-out: EC50 hGLUC R. The protocol: as §1, with “temperature.” for “temperature. After addition of HTRF reagents diluted in lysis buffer (kit components), the plates were incubated for 1 hr, followed by measurement of the fluorescence ratio at 665/620 nm. In vitro potency of agonists was quantified by determining the concentrations that caused 50% activation of maximal response (EC50).”
In general terms: TR-FRET usually uses a lanthanide donor and a delayed reading to cut background.

T2 sequence (P47871 26-477): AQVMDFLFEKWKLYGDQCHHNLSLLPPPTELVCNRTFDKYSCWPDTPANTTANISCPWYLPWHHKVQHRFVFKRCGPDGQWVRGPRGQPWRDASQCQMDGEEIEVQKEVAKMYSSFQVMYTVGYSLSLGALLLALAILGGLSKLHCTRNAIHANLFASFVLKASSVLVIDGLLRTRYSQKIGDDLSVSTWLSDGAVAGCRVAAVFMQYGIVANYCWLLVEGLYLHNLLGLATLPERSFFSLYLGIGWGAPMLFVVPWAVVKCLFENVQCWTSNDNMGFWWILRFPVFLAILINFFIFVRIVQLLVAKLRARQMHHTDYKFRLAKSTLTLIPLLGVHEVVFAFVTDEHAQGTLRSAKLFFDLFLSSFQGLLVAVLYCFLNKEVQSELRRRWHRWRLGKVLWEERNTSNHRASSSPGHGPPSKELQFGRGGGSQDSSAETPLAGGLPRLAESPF
T1 sequence (P43220 24-463): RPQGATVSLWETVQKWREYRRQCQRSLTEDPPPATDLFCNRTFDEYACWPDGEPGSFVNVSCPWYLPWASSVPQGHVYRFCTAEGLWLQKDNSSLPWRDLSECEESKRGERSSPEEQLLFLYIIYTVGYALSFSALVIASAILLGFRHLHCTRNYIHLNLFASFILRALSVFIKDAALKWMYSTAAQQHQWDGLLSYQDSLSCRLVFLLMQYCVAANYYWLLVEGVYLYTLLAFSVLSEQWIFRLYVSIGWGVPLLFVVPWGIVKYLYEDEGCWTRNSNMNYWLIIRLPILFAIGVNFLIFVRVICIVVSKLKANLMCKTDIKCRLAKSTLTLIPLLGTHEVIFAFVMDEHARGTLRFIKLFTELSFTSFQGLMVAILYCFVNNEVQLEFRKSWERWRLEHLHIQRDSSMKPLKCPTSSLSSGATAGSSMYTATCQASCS

What is called solubility is the dissolved amount per volume that the medium holds. Read a low solubility as little dissolved substance. Compound `CCCC[C@H](NC(=O)[C@H](CCC(N)=O)NC(=O)[C@H](CCCCN)NC(=O)[C@H](CO)NC(=O)[C@@H](NC(=O)[C@H](CC(=O)O)NC(=O)[C@H](CO)NC(=O)[C@@H](NC(=O)[C@H](Cc1ccccc1)NC(=O)[C@@H](NC(=O)CNC(=O)[C@H](CCC(N)=O)NC(=O)[C@H](CO)NC(=O)[C@@H](N)Cc1cscn1)[C@@H](C)O)[C@@H](C)O)C(C)(C)C)C(=O)N[C@@H](CCC(=O)O)C(=O)N[C@@H](CO)C(=O)N[C@@H](CCCNC(=N)N)C(=O)N[C@@H](CCCNC(=N)N)C(=O)N[C@@H](C)C(=O)N[C@@H](CCC(N)=O)C(=O)N[C@@H](CCC(=O)O)C(=O)N[C@@H](Cc1ccccc1)C(=O)N[C@H](C(=O)N[C@@H](CCC(=O)O)C(=O)N[C@@H](Cc1c[nH]c2ccccc12)C(=O)N[C@@H](CC(C)C)C(=O)N[C@@H](CC(C)C)C(=O)N[C@@H](C)C(=O)N[C@H](C(=O)NCC(=O)N1CCC[C@H]1C(=O)N[C@@H](CCC(=O)O)C(=O)N[C@@H](CO)C(=O)NCC(=O)N[C@@H](C)C(=O)N1CCC[C@H]1C(=O)N1CCC[C@H]1C(=O)N1CCC[C@H]1C(=O)N[C@@H](CO)C(=O)O)[C@@H](C)O)[C@@H](C)CC` [SEQ ID NO 25, Tza-S-Q-G-T-F-T-S-D-Tle-S-K-Q-Nle-ESRRAQEFIEWLLATGPESGAPPPS-OH] (H-[Ala(4-thiazolyl)]SQGTFTSD[Tle]SKQ[Nle]ESRRAQEFIEWLLATGPESGAPPPS-OH; N-terminus assumed) registered a solubility at 2 h in data set [1] above 10000 µg/mL.
The same measure, in the same setting: the same measure for `CCCC[C@H](NC(=O)[C@H](CCC(N)=O)NC(=O)[C@H](CCCCN)NC(=O)[C@H](CO)NC(=O)[C@@H](NC(=O)[C@H](CC(=O)O)NC(=O)[C@H](CO)NC(=O)[C@@H](NC(=O)[C@H](Cc1ccccc1)NC(=O)[C@@H](NC(=O)CNC(=O)[C@H](CCC(N)=O)NC(=O)[C@H](CO)NC(=O)[C@@H](N)Cc1cscn1)[C@@H](C)O)[C@@H](C)O)C1CCCCC1)C(=O)N[C@@H](CCC(=O)O)C(=O)N[C@@H](CO)C(=O)N[C@@H](CCCNC(=N)N)C(=O)N[C@@H](CCCNC(=N)N)C(=O)N[C@@H](C)C(=O)N[C@@H](CCC(N)=O)C(=O)N[C@@H](CCC(=O)O)C(=O)N[C@@H](Cc1ccccc1)C(=O)N[C@H](C(=O)N[C@@H](CCC(=O)O)C(=O)N[C@@H](Cc1c[nH]c2ccccc12)C(=O)N[C@@H](CC(C)C)C(=O)N[C@@H](CC(C)C)C(=O)N[C@@H](C)C(=O)N[C@H](C(=O)NCC(=O)N1CCC[C@H]1C(=O)N[C@@H](CCC(=O)O)C(=O)N[C@@H](CO)C(=O)NCC(=O)N[C@@H](C)C(=O)N1CCC[C@H]1C(=O)N1CCC[C@H]1C(=O)N1CCC[C@H]1C(=O)N[C@@H](CO)C(=O)O)[C@@H](C)O)[C@@H](C)CC` [SEQ ID NO 24, Tza-S-Q-G-T-F-T-S-D-Chg-S-K-Q-Nle-ESRRAQEFIEWLLATGPESGAPPPS-OH] (H-[Ala(4-thiazolyl)]SQGTFTSD[Chg]SKQ[Nle]ESRRAQEFIEWLLATGPESGAPPPS-OH): above 10000 µg/mL.
For orientation: EC50 means the concentration giving half of the maximal effect. In the case of `CC[C@H](C)[C@H](NC(=O)[C@H](Cc1ccccc1)NC(=O)[C@H](CCC(=O)O)NC(=O)[C@H](CCC(N)=O)NC(=O)[C@H](C)NC(=O)[C@H](CCCNC(=N)N)NC(=O)[C@H](CCCNC(=N)N)NC(=O)[C@H](CO)NC(=O)[C@H](CCC(=O)O)NC(=O)[C@H](CC(C)C)NC(=O)[C@H](CCC(N)=O)NC(=O)[C@H](CCCCN)NC(=O)[C@H](CO)NC(=O)[C@@H](NC(=O)[C@H](CC(=O)O)NC(=O)[C@H](CO)NC(=O)[C@@H](NC(=O)[C@H](Cc1ccccc1)NC(=O)[C@@H](NC(=O)CNC(=O)[C@H](CCC(N)=O)NC(=O)[C@H](CO)NC(=O)[C@@H](N)Cc1cscn1)[C@@H](C)O)[C@@H](C)O)c1ccccc1)C(=O)N[C@@H](CCC(=O)O)C(=O)N[C@@H](Cc1c[nH]c2ccccc12)C(=O)N[C@@H](CC(C)C)C(=O)N[C@@H](CC(C)C)C(=O)N[C@@H](C)C(=O)N[C@H](C(=O)NCC(=O)N1CCC[C@H]1C(=O)N[C@@H](CCC(=O)O)C(=O)N[C@@H](CO)C(=O)NCC(=O)N[C@@H](C)C(=O)N1CCC[C@H]1C(=O)N1CCC[C@H]1C(=O)N1CCC[C@H]1C(=O)N[C@@H](CO)C(=O)O)[C@@H](C)O` [SEQ ID NO 10, Tza-S-Q-G-T-F-T-S-D-Phg-SKQLESRRAQEFIEWLLATGPESGAPPPS-OH] (H-[Ala(4-thiazolyl)]SQGTFTSD[Phg]SKQLESRRAQEFIEWLLATGPESGAPPPS-OH; N-terminus assumed), the concentration for a half-maximal effect (EC50) came out at 45 nM in data set [2] and 0.006 nM in data set [3].
On to `CCCC[C@H](NC(=O)[C@H](CCC(N)=O)NC(=O)[C@H](CCCCN)NC(=O)[C@H](CO)NC(=O)[C@@H](NC(=O)[C@H](CC(=O)O)NC(=O)[C@H](CO)NC(=O)[C@@H](NC(=O)[C@H](Cc1ccccc1)NC(=O)[C@@H](NC(=O)CNC(=O)[C@H](CCC(N)=O)NC(=O)[C@H](CO)NC(=O)[C@@H](N)Cc1cscn1)[C@@H](C)O)[C@@H](C)O)C1CCCCC1)C(=O)N[C@@H](CCC(=O)O)C(=O)N[C@@H](CO)C(=O)N[C@@H](CCCNC(=N)N)C(=O)N[C@@H](CCCNC(=N)N)C(=O)N[C@@H](C)C(=O)N[C@@H](CCC(N)=O)C(=O)N[C@@H](CC(=O)O)C(=O)N[C@@H](Cc1ccccc1)C(=O)N[C@H](C(=O)N[C@@H](CCC(=O)O)C(=O)N[C@@H](Cc1c[nH]c2ccccc12)C(=O)N[C@@H](CC(C)C)C(=O)N[C@@H](CC(C)C)C(=O)N[C@@H](C)C(=O)N[C@H](C(=O)NCC(=O)N1CCC[C@H]1C(=O)N[C@@H](CCC(=O)O)C(=O)N[C@@H](CO)C(=O)NCC(=O)N[C@@H](C)C(=O)N1CCC[C@H]1C(=O)N1CCC[C@H]1C(=O)N1CCC[C@H]1C(=O)N[C@@H](CO)C(=O)O)[C@@H](C)O)[C@@H](C)CC` [SEQ ID NO 20, Tza-S-Q-G-T-F-T-S-D-Chg-S-K-Q-Nle-ESRRAQDFIEWLLATGPESGAPPPS-OH] (H-[Ala(4-thiazolyl)]SQGTFTSD[Chg]SKQ[Nle]ESRRAQDFIEWLLATGPESGAPPPS-OH; N-terminus assumed), for which the “Solubility (pH7.4) [mg/ml]” value in data set [1] (2 h) is reported as above 10.0 mg/ml.
Take `CC[C@H](C)[C@H](NC(=O)[C@H](Cc1ccccc1)NC(=O)[C@H](CCC(=O)O)NC(=O)[C@H](CCC(N)=O)NC(=O)[C@H](C)NC(=O)[C@H](CCCNC(=N)N)NC(=O)[C@H](CCCNC(=N)N)NC(=O)[C@H](CO)NC(=O)[C@H](CCC(=O)O)NC(=O)[C@H](CC(C)C)NC(=O)[C@H](CCC(N)=O)NC(=O)[C@H](CCCCN)NC(=O)[C@H](CO)NC(=O)[C@@H](NC(=O)[C@H](CC(=O)O)NC(=O)[C@H](CO)NC(=O)[C@@H](NC(=O)[C@H](Cc1ccccc1)NC(=O)[C@@H](NC(=O)CNC(=O)[C@H](CCC(N)=O)NC(=O)[C@H](CO)NC(=O)[C@@H](N)Cc1cscn1)[C@@H](C)O)[C@@H](C)O)C(C)C)C(=O)N[C@@H](CCC(=O)O)C(=O)N[C@@H](Cc1c[nH]c2ccccc12)C(=O)N[C@@H](CC(C)C)C(=O)N[C@@H](CC(C)C)C(=O)N[C@@H](C)C(=O)N[C@H](C(=O)NCC(=O)N1CCC[C@H]1C(=O)N[C@@H](CCC(=O)O)C(=O)N[C@@H](CO)C(=O)NCC(=O)N[C@@H](C)C(=O)N1CCC[C@H]1C(=O)N1CCC[C@H]1C(=O)N1CCC[C@H]1C(=O)N[C@@H](CO)C(=O)O)[C@@H](C)O` [SEQ ID NO 7, Tza-SQGTFTSDVSKQLESRRAQEFIEWLLATGPESGAPPPS-OH] (H-[Ala(4-thiazolyl)]SQGTFTSDVSKQLESRRAQEFIEWLLATGPESGAPPPS-OH; N-terminus assumed): the EC50 amounted to 4.19 nM in data set [2] and 0.0024 nM in data set [3].
